# From patent US6657061B2, “Polymorphic forms of 6-[4-1(1-cyclohexyl-1H-tetrazol-5-yl)butoxy]-3,4-dihydro-2(1H)-quinolinone” (priority 2001, dated 2003)
# How the values were obtained:
# [1] = stability of the polymorphic form (statement only); type: physicochemical; conditions: solid form; test conditions not given
# [2] = DSC thermogram of combined Forms A, B and C; relative solubility inferred from melting points; type: physicochemical; conditions: suggested by the lower DSC melting point (weaker crystal packing forces), not measured directly
# Text: Characterization of Form A of cilostazol, Form B of cilostazol, and Form C of cilostazol was further completed using DSC thermograms, shown in FIGS. 3, 4, and 5, respectively, with DSC thermograms for combinations of Form A and Form B; Form B and Form C; and Forms A, B, and C are shown in FIGS. 6, 7, and 8 respectively. DSC data were generated using a Mettler-Toledo DSC 821^e (Columbus, Ohio) with a Julabo FT900 intercooler chiller (Julabo Company; Allentown, Pa.). In general, samples were analyzed in a vented, sealed aluminum pan. Because the endothermic peak may vary depending upon the rate of heating and the calibration and precision of the instrument, with the amount of peak variation dependent upon the heating rate used, all thermograms included herein were run under the same, consistent conditions: heating at 10° C. per minute under a nitrogen purge at 40 mL/minute.
# FIG. 8 illustrates a DSC thermogram for the combination of Form A, Form B and Form C having a second heating cycle with a maximum temperature of about 110° C. with a holding time of about 30 minutes. The peaks in the third heating cycle show a Form A to Form B to Form C peak area ratio of approximately 8:2:1, respectively, with the relative amount of Form A, Form B and Form C further variable on the heat of enthalpy of each polymorphic form.
# [3] = Form A as prepared by the procedures of the '479 patent; cited from earlier work
# [4] = Form A as prepared by the procedures of the '479 patent; cited from earlier work; remark: listed apart in the source
Structure (SMILES),stability of polymorph [1],solubility relative to Form A [2],bioavailability [3],aqueous solubility [4]
"O=C1CCc2cc(OCCCCc3nnnn3C3CCCCC3)ccc2N1 [Form B, 6-[4-(1-cyclohexyl-1H-tetrazol-5-yl)butoxy]-3,4-dihydro-2(1H)-quinolinone]",stable,more soluble than Form A,,
"O=C1CCc2cc(OCCCCc3nnnn3C3CCCCC3)ccc2N1 [Form A, 6-[4-(1-cyclohexyl-1H-tetrazol-5-yl)butoxy]-3,4-dihydro-2(1H)-quinolinone]",,,low,low
